The results in this text go back to patent publication US12037344B2, “NLRP3 modulators” (INNATE TUMOR IMMUNITY, INC., priority 2018, dated 2024).

Structures are written as SMILES. A value given as a limit tells only on which side of the number the result lay.

In one experiment the test system is THP-1 cells. The experiment can be described thus: Measurement of IL-1β production, hTRF protocol (second alternative procedure), THP-1 cells. In kind it is cell-based, human. Particulars: Homo sapiens, THP-1, IL-1β production, human cells; read-out: NLRP3 hILIB EC50. In outline:
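Compounds, dilution series starting at a final 10 μM, were incubated 2 hours at 37° C with PMA-differentiated THP-1 cells (50 ng/ml overnight; 50,000 cells/well, 2% FBS RPMI). Released IL-1β quantified in supernatant by hTRF kit with 1:40 antibody dilution, 4° C overnight, 665/615 nm ratio.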

The next experiment concerns the target T1, TLR7 (Homo sapiens, UniProt Q9NYK1).
T1 construct: human HEK-Blue cells co-expressing a TLR7 or TLR8 gene
T1 sequence (Q9NYK1 27-1049): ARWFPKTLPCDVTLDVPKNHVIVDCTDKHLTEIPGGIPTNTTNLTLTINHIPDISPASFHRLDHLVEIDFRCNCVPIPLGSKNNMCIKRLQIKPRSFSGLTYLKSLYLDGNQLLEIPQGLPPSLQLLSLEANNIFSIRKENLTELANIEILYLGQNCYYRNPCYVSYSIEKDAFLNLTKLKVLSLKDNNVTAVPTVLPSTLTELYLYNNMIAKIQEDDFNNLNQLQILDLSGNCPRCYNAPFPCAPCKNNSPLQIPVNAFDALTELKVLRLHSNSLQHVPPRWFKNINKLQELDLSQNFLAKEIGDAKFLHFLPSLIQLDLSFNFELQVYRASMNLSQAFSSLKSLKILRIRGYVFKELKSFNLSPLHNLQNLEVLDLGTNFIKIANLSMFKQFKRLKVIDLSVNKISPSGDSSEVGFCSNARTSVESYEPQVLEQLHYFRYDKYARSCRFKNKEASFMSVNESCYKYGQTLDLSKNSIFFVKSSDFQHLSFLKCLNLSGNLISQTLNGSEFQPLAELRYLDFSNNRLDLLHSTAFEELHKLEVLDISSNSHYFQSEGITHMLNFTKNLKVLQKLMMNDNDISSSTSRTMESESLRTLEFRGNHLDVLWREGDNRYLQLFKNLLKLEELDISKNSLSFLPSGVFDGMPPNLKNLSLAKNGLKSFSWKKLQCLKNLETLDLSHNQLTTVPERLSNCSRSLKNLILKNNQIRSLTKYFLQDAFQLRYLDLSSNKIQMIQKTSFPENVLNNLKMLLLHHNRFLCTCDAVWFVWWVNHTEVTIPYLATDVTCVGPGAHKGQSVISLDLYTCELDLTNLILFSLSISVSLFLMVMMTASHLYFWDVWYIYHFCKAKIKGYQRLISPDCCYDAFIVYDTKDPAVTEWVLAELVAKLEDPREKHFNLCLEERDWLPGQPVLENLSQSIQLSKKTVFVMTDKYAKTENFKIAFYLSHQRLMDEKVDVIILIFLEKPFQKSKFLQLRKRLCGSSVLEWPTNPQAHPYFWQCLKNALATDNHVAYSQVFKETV
The experiment in a line: In vitro human TLR7 binding reporter assay (HEK-Blue, NF-kB/AP1-inducible SEAP). As to conditions: activity range, read-out: TLR7 Agonist EC50. In kind it is cell-based. In outline: (§1)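 Cells are seeded and grown for 24 h. Compounds or DMSO are then added and incubated 18 h at 37 °C. Quanti-Blue is added, and SEAP is read after thirty minutes. EC50 values are normalized, with RLU from 50 μM reference standard setting 100% Ymax.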
(In a reporter assay the amount or activity of a reporter protein is the signal.)

For another experiment, the target named is T2, TLR8 (Homo sapiens, UniProt Q9NR97).
T2 construct: human HEK-Blue cells co-expressing a TLR7 or TLR8 gene
T2 sequence (Q9NR97 27-1041): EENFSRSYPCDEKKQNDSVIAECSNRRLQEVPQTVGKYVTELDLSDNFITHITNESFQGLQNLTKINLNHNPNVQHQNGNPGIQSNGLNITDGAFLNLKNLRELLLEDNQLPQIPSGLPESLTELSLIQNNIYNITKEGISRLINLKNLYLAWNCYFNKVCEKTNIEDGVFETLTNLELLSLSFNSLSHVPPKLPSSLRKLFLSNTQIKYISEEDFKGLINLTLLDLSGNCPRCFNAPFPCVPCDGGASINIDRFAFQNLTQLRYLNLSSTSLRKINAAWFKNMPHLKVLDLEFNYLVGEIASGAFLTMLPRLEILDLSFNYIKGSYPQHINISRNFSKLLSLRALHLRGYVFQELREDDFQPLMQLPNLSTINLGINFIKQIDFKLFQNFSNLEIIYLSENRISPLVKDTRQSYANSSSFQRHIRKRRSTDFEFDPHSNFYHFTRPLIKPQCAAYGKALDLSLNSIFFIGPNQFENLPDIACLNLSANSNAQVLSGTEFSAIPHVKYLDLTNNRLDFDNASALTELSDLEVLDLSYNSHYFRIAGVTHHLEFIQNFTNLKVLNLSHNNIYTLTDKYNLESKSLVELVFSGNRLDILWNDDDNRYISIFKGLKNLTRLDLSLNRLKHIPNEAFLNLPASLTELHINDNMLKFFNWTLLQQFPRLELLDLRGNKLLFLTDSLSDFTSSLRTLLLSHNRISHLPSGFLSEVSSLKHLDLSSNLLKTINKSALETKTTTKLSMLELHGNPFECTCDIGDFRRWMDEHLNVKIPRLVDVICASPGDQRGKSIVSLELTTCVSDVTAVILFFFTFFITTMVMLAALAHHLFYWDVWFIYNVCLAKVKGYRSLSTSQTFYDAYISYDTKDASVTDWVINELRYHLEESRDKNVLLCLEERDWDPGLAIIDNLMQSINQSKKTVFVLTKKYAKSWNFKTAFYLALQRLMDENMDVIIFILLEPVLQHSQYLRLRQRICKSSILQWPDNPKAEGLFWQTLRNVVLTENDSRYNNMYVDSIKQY
The experiment can be described thus: In vitro human TLR8 binding reporter assay (HEK-Blue, NF-kB/AP1-inducible SEAP). The class given is cell-based. Particulars: activity range, read-out: TLR8 Agonist EC50. In outline:
as §1

The term EC50 denotes the concentration at which the effect is half-maximal. On to `Nc1nc2cc(-c3cc[nH]n3)ccc2c2[nH]c(CCNC(=O)C3CCCCO3)cc12` (stereo not drawn) [Example 415], for which the EC50 in the experiment on THP-1 cells was 1.89 µM; at TLR7 it was above 100 µM; at TLR8 it was above 100 µM.
As for `Nc1nc2cc(-c3cc[nH]n3)ccc2c2[nH]c(CCNC(=O)c3cc(F)ccn3)cc12` [Example 416], the half-maximal effective concentration (EC50) in the experiment on THP-1 cells is 0.15 µM; on TLR7, above 100 µM; at TLR8, above 100 µM.
`Nc1nc2cc(-c3cc[nH]n3)ccc2c2[nH]c(CCNC(=O)c3ccc(F)cn3)cc12` [Example 417]: the EC50 in the experiment with THP-1 cells was 0.16 µM; on TLR7, above 100 µM; at TLR8, above 100 µM.
For `Nc1nc2cc(-c3cc[nH]n3)ccc2c2[nH]c(CNC(=O)c3ccc(F)cn3)cc12` [Example 418], the EC50 was 3.65 µM in the experiment on THP-1 cells, above 100 µM at TLR7 and above 100 µM at TLR8.
As for `COCCNCc1cc2c(N)nc3cc(-c4cc[nH]n4)ccc3c2[nH]1` [Example 419], the EC50 was 0.35 µM with THP-1 cells, above 100 µM on TLR7 and above 100 µM at TLR8.
Take `CCNCc1cc2c(N)nc3cc(-c4cc[nH]n4)ccc3c2[nH]1` [Example 420]: the values for the EC50 with THP-1 cells, on TLR7 and at TLR8 were 0.51 µM, above 100 µM and above 100 µM, respectively.
As to `Nc1nc2cc(-c3cc[nH]n3)ccc2c2[nH]c(CN[C@H]3CCOC3)cc12` [Example 421], the EC50 with THP-1 cells was 0.46 µM; on TLR7 it was above 100 µM; at TLR8 it was above 100 µM.
As for `Nc1nc2cc(-c3cc[nH]n3)ccc2c2[nH]c(CN[C@@H]3CCOC3)cc12` [Example 422], the results for the EC50 with THP-1 cells, at TLR7 and on TLR8 were 0.14 µM, above 100 µM and above 100 µM, respectively.
On to `Cc1[nH]c2c(c(N)nc3cc(-c4cc[nH]n4)ccc32)c1C` [Example 423, 2,3-dimethyl-7-(1H-pyrazol-3-yl)-1H-pyrrolo[3,2-c]quinolin-4-amine], for which the figures for the EC50 in the experiment on THP-1 cells, on TLR7 and at TLR8 were 0.62 µM, above 100 µM and above 100 µM, respectively.
Regarding `CC(=O)NC(C)Cn1cc2c(N)nc3cc(-n4cccn4)ccc3c2n1` (stereo not drawn) [Example 424], the EC50 in the experiment on THP-1 cells is 3.21 µM; on TLR7, above 100 µM; at TLR8, above 100 µM.
In the case of `CC(=O)NC(C)CCn1cc2c(N)nc3cc(-n4cccn4)ccc3c2n1` (stereo not drawn) [Example 425], the EC50 was 5.73 µM in the experiment with THP-1 cells, above 100 µM on TLR7 and above 100 µM on TLR8.
As to `CC(N)CCn1cc2c(N)nc3cc(-n4cccn4)ccc3c2n1` (stereo not drawn) [Example 426], the EC50 is 1.89 µM in the experiment on THP-1 cells, above 100 µM on TLR7 and above 100 µM at TLR8.
For the compound `CC(C)(O)CCn1ncc2c(N)nc3cc(-c4cc[nH]n4)ccc3c21` [Example 427], the EC50 with THP-1 cells was 2.01 µM; at TLR7, above 100 µM; on TLR8, above 100 µM.
For `CC(O)Cn1ncc2c(N)nc3cc(-c4cc[nH]n4)ccc3c21` (stereo not drawn) [Example 428], the EC50 in the experiment on THP-1 cells is 1.81 µM; at TLR7, above 100 µM; at TLR8, above 100 µM.
In the case of `CC(=O)NC(C)Cn1ncc2c(N)nc3cc(-c4cc[nH]n4)ccc3c21` (stereo not drawn) [Example 429], the EC50 in the experiment on THP-1 cells is 13 µM; at TLR7, above 100 µM; at TLR8 it was above 100 µM.
For the compound `Nc1nc2cc(-c3cc[nH]n3)ccc2c2c1cnn2CCN1CC(F)(F)C1` [Example 430], the results for the EC50 with THP-1 cells, on TLR7 and at TLR8 were 1.9 µM, above 100 µM and above 100 µM, respectively.
As to `CC(Cn1cc2c(N)nc3cc(-n4cccn4)ccc3c2n1)NC(=O)C(C)(C)F` (stereo not drawn) [Example 431], the EC50 in the experiment on THP-1 cells is 1.23 µM; on TLR7 it was above 100 µM; on TLR8 it was above 100 µM.
On to `CC(C)(O)Cn1ncc2c(N)nc3cc(-c4cc[nH]n4)ccc3c21` [Example 432], for which the EC50 in the experiment with THP-1 cells is 3.19 µM; on TLR7 it was above 100 µM; at TLR8, above 100 µM.
Regarding `Nc1nc2cc(-n3cccn3)ccc2c2nn(CC3COCCN3)cc12` (stereo not drawn) [Example 433], the EC50 with THP-1 cells was 4.58 µM; on TLR7, above 100 µM; on TLR8, above 100 µM.
On to `COC1CCN(CCn2ncc3c(N)nc4cc(-c5cc[nH]n5)ccc4c32)C1` (stereo not drawn) [Example 434], for which the EC50 with THP-1 cells was 4.35 µM; on TLR7 it was above 100 µM; at TLR8 it was above 100 µM.
Turning to `COC1CN(CCn2ncc3c(N)nc4cc(-c5cc[nH]n5)ccc4c32)C1` [Example 435], the EC50 in the experiment on THP-1 cells is 3.61 µM; on TLR7, above 100 µM; on TLR8, above 100 µM.
On to `Nc1nc2cc(-c3cc[nH]n3)ccc2c2c1cnn2CCN1CCOCC1` [Example 436], for which the EC50 in the experiment with THP-1 cells was 2.75 µM; on TLR7, above 100 µM; on TLR8, above 100 µM.
On to `NCc1cc2c(N)nc3cc(-n4cccn4)ccc3c2[nH]1` [Example 437], for which the EC50 was 0.56 µM in the experiment with THP-1 cells, above 100 µM at TLR7 and above 100 µM at TLR8.
`NCc1cc2c(N)nc3cc(-c4ccn[nH]4)ccc3c2[nH]1` [Example 438]: the EC50 in the experiment on THP-1 cells is 0.99 µM; at TLR7, above 100 µM; at TLR8, above 100 µM.
As for `CN(C)Cc1cc2c(N)nc3cc(-c4ccn[nH]4)ccc3c2[nH]1` [Example 439], the figures for the EC50 in the experiment with THP-1 cells, at TLR7 and on TLR8 were 0.32 µM, above 100 µM and above 100 µM, respectively.
Take `Nc1nc2cc(-c3ccn[nH]3)ccc2c2[nH]c(CCCO)cc12` [Example 440]: the EC50 with THP-1 cells is 0.13 µM; on TLR7, above 100 µM; at TLR8, above 100 µM.
Regarding `CCn1c(CN)cc2c(N)nc3cc(-c4ccn[nH]4)ccc3c21` [Example 441], the EC50 was 1.33 µM in the experiment with THP-1 cells, above 100 µM on TLR7 and above 100 µM at TLR8.
For the compound `Nc1nc2cc(-c3ccn[nH]3)ccc2c2[nH]c(CCO)cc12` [Example 442], the EC50 with THP-1 cells is 0.19 µM; at TLR7, above 100 µM; on TLR8, above 100 µM.
Regarding `CC(=O)NCc1cc2c(N)nc3cc(-c4ccn[nH]4)ccc3c2[nH]1` [Example 443], the EC50 in the experiment with THP-1 cells was 0.23 µM; on TLR7, above 100 µM; on TLR8, above 100 µM.
On to `CCn1c(CN(C)C)cc2c(N)nc3cc(-c4ccn[nH]4)ccc3c21` [Example 444], for which the EC50 in the experiment on THP-1 cells was 0.26 µM; on TLR7, above 100 µM; on TLR8 it was above 100 µM.
Take `CC(=O)NCc1cc2c(N)nc3cc(-n4cccn4)ccc3c2[nH]1` [Example 445]: the EC50 is 0.66 µM with THP-1 cells, above 100 µM on TLR7 and above 100 µM at TLR8.
